Target: Serine/threonine-protein phosphatase 5 (Homo sapiens) (UniProt P53041)
Assay: PP5 phosphohistone dephosphorylation inhibition IC50 – biochemical, radiolabel, powder samples, orthogonal assay for PP5 inhibitor project, dose response (AID 463224)
Settings: purified PP5c, 33P-phosphohistone dephosphorylation, scintillation

Sequence of Serine/threonine-protein phosphatase 5 (Homo sapiens) (P53041 whole entry, looked up): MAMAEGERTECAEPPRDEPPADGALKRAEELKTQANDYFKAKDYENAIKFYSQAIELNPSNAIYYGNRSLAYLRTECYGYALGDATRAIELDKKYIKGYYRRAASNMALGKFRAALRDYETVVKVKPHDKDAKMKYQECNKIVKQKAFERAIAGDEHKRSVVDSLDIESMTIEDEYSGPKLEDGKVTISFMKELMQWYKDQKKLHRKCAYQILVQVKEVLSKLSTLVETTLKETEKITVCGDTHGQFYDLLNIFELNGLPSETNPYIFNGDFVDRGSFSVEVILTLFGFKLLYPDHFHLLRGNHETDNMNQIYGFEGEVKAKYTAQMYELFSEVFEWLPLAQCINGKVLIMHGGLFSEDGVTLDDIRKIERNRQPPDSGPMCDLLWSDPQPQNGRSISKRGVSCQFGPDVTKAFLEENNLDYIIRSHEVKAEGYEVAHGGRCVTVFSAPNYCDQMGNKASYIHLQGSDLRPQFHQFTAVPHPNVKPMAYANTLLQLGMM

| Compound | IC50 [µM] |
| --- | --- |
| O=C(O)C1C2CCC(O2)C1C(=O)NC1CCCCC1 (configuration not stated) | 13.5 |
| O=C(O)c1n[nH]nc1-c1ccccc1 | 40.6 |

Reference: PubChem BioAssay AID463224 (The Scripps Research Institute Molecular Screening Center, 2010)
